# How the values were obtained:
# [1] = tested on: FMAL-actin plus TMR-cC0-C2; assay: Selleck library HTS, 473 nm excitation (FLT of FMAL-actin with TMR-cC0-C2, FLT-FRET); format: binding, human; conditions: for 473-nm Δτ, Repeat 1 / 473-nm Δτ, Repeat 2: initial screen, 30 μM compound; for 473-nm z-score (based on avg Δτ): robust z-score, hit threshold ±4, 30 μM compound
# How it was run: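 Donor fluorescence lifetime was then recorded. Waveforms were fit to a single exponential, and ΔFLT was obtained after a moving-median plate-gradient correction (half-row window), rescaled by the median DMSO lifetime.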
# [2] = tested on: TMR-cC0-C2 (C0-C2 fragment of human cMyBP-C); assay: FLT-TMR concentration-response assay (FLT of TMR on cC0-C2, no actin); format: binding; conditions: concentration-response, no actin
# How it was run: (§1)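 Hits tested at eight concentrations (0.5–100 μM) and read on a high-throughput fluorescence lifetime plate reader. Hill fits applied only under certain conditions.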
# [3] = tested on: FMAL-actin/PKA-phosphorylated TMR-cC0-C2 interaction; assay: FLT-FRET concentration-response assay, FMAL-actin plus PKA-phosphorylated TMR-cC0-C2; format: binding, human; conditions: phosphorylated cC0-C2
# Method: (§2) Compounds identified as initial hits were further examined to determine the concentration–response curves for seven conditions ([1]): FMAL-actin alone identified actin-binding compounds that alter the FLT of FMAL-actin ([2]).
# (§3) Fluorescence lifetime (FLT) measurements were acquired using a high-throughput FLT plate reader (Fluorescence Innovations, Inc) ([14], [27]), provided by Photonic Pharma LLC. […] The observed waveforms were analyzed as described previously ([15], [28]).
# (§4) The primary hits were dissolved in DMSO to make a 10 mM stock solution, which was serially diluted in 96-well mother plates. Hits were screened at eight concentrations (0.5–100 μM). […] Compounds (1 μl) were transferred from the mother plates into 384-well plates using a Mosquito HV liquid handler (TTP Labtech Ltd, Hertfordshire, UK). The same procedure of dispensing as for the pilot screening was applied in the concentration-response assays. Concentration dependence of the FLT-FRET (E/EDMSO) or FLT-TMR (Δτ) change data was fit to a Hill equation only under certain conditions to help guide the eye (Fig. 4).
# [4] = tested on: TMR-fC1-C2 (C1-C2 of fast skeletal MyBP-C); assay: FLT-TMR concentration-response assay, fC1-C2; format: binding; conditions: concentration-response, no actin
# How it was run: as §1
# [5] = tested on: FMAL-actin/TMR-cC0-C2 interaction; assay: FLT-FRET concentration-response assay, FMAL-actin plus TMR-cC0-C2; format: binding, human; conditions: for specificity of FLT-FRET effect for unphosphorylated over phosphorylated cC0-C2: effect on cC0-C2 compared to phosphorylated cC0-C2 (Tables 1 and 2); for effect on FLT-FRET / binding between FMAL-actin and TMR-cC0-C2 (in words): unphosphorylated cC0-C2
# How it was run: as §1
# [6] = tested on: FMAL-actin/TMR-fC1-C2 interaction; assay: FLT-FRET concentration-response assay, FMAL-actin plus TMR-fC1-C2; format: binding
# Method: as §2, §3, §4
# TMR-cC0-C2 = assay: Selleck library HTS, 532 nm excitation (FLT of TMR-cC0-C2 in presence of FMAL-actin); format: binding, human; conditions: for 532-nm Δτ, Repeat 1 / 532-nm Δτ, Repeat 2: initial screen, 30 μM compound; for 532-nm z-score (based on avg Δτ): robust z-score, hit threshold ±4, 30 μM compound
effect on FLT-FRET / binding between FMAL-actin and PKA-phosphorylated TMR-cC0-C2 (in words) [3],effect on FLT-FRET / binding between FMAL-actin and TMR-cC0-C2 (in words) [5],effect on FLT-FRET / binding between FMAL-actin and TMR-fC1-C2 (in words) [6],SMILES,"473-nm Δτ, Repeat 1 [1]","473-nm Δτ, Repeat 2 [1]",473-nm z-score (based on avg Δτ) [1],effect on FLT of TMR-cC0-C2 (in words) [2],effect on FLT of TMR-fC1-C2 (in words) [4],specificity of FLT-FRET effect for unphosphorylated over phosphorylated cC0-C2 [5],"532-nm Δτ, Repeat 1 (TMR-cC0-C2)","532-nm Δτ, Repeat 2 (TMR-cC0-C2)",532-nm z-score (based on avg Δτ) (TMR-cC0-C2)
decreased,decreased,decreased,CCC(C)(Oc1ccc(C2(c3ccc(OC(C)(CC)C(=O)O)cc3)CCCCC2)cc1)C(=O)O (stereo not drawn) [Clinofibrate],0.090 ns,0.075 ns,4.65,do not affect,do not affect,stronger reduction of FRET with non-phosphorylated than phosphorylated,0.006 ns,0.016 ns,0.70
decreased,decreased,decreased,COC(=O)N[C@H](C(=O)N1CCC[C@H]1c1nc(-c2ccc3c(c2)O[C@@H](c2ccccc2)n2c-3cc3cc(-c4c[nH]c([C@@H]5CCCN5C(=O)[C@@H](NC(=O)OC)C(C)C)n4)ccc32)c[nH]1)C(C)C [Elbasvir],0.142 ns,0.080 ns,6.24,do not affect,do not affect,5 fold,-0.002 ns,0.011 ns,0.31
decreased,decreased,decreased,CCN(C(=O)c1c(O)c2c(Cl)cccc2n(C)c1=O)c1ccccc1 [Laquinimod],0.109 ns,0.071 ns,5.08,do not affect,do not affect,stronger reduction of FRET with non-phosphorylated than phosphorylated,-0.017 ns,-0.016 ns,-0.99
decreased,decreased,decreased,CC(C(=O)O)c1ccc2c(c1)CC(=O)c1ccccc1S2 (stereo not drawn) [Zaltoprofen],0.113 ns,0.083 ns,5.52,do not affect,do not affect,stronger reduction of FRET with non-phosphorylated than phosphorylated,-0.015 ns,0.015 ns,0.04

# Source: publication PMC10692721, “Drug discovery for heart failure targeting myosin-binding protein C” (The Journal of Biological Chemistry, 2023)
